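Five compound concentrations were applied to cells in 96-well plates for 48 hours; endpoints were derived by simple linear interpolation of the resulting dose-response curve. Definition used: TGI = concentration required for complete inhibition of growth.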
Experiments:
Assay in all cases: DTP human tumour cell line panel, 48 h
COLO 205 colon = test system: COLO 205 colon
HCT-116 colon = test system: HCT-116 colon
HCT-15 colon = test system: HCT-15 colon
NCI/ADR-RES ovarian = test system: NCI/ADR-RES ovarian
RPMI-8226 leukemia = test system: RPMI-8226 leukemia
SF-268 CNS = test system: SF-268 CNS
T-47D breast = test system: T-47D breast
TK-10 renal = test system: TK-10 renal
UACC-257 melanoma = test system: UACC-257 melanoma
HCC-2998 colon = test system: HCC-2998 colon

Row | Compound | TGI (COLO 205 colon) [µM] | TGI (HCT-116 colon) [µM] | TGI (HCT-15 colon) [µM] | TGI (NCI/ADR-RES ovarian) [µM] | TGI (RPMI-8226 leukemia) [µM] | TGI (SF-268 CNS) [µM] | TGI (T-47D breast) [µM] | TGI (TK-10 renal) [µM] | TGI (UACC-257 melanoma) [µM] | TGI (HCC-2998 colon) [µM]
1 | Cc1ccc(N=Nc2c(O)c(C(=O)Nc3ccccc3)cc3ccccc23)c([N+](=O)[O-])c1 | > 100 | > 100 | > 100 | > 100 | > 100 | > 100 | > 100 | > 100 | > 100 | 
2 | COc1ccc(CSc2ccccc2Cn2cccc2)cc1OC | > 100 | > 100 | > 100 | > 100 | > 100 | > 100 | > 100 | > 100 | > 100 | > 100
3 | CC(C)=C/C=C1/CS(=O)(=O)C=C1C | > 100 | > 100 | > 100 | > 100 | > 100 |  | > 100 | > 100 | > 100 | > 100
4 | O[C@H]1[C@H](O)[C@@H](O)[C@@]2(O)C[C@@H](O)[C@@H]1N2 | > 100 | > 100 | > 100 | > 100 |  | > 100 | > 100 | > 100 | > 100 | > 100
5 | O=C1C[C@@H](c2ccccc2)O[C@@H](c2ccccc2)C1 | > 100 | > 100 | > 100 | > 100 | > 100 | > 100 | > 100 |  | > 100 | > 100
6 | CCC[C@H](C)C[C@H](C)C[C@H](C)/C=C(\C)[C@@H](O)[C@@H](C)C(=O)CC |  | 33.9 | 41.7 | 30.9 | 49 | 39.6 | 50.8 | 38.3 | 38.9 | 31.2
7 | COc1ccc2oc(=N)c(C(=O)Nc3ccccn3)cc2c1 | > 100 | > 100 | > 100 | > 100 | > 100 | > 100 | > 100 |  | > 100 | > 100
8 | c1ccc2c3c([nH]c2c1)C1CCCN1CC3 (centres undefined) | > 10 |  | > 10 | > 10 | > 10 | > 10 | > 10 | > 10 | > 10 | > 10
9 | CCOC(=O)c1ccc(C(=O)C(C(C)=O)C(=O)OC(C)(C)C)[nH]1 (centres undefined) | > 100 | > 100 | > 100 | > 100 | > 100 | > 100 | > 100 |  |  | > 100
10 | CC(C)(C)c1cc(C2COC(c3cc(C(C)(C)C)c(O)c(C(C)(C)C)c3)CO2)cc(C(C)(C)C)c1O (centres undefined) | 96.7 | > 100 | > 100 | > 100 | > 100 | > 100 | > 100 | > 100 | > 100 | 
11 | COC12c3ccccc3-c3ccccc3C1[C@H]1C(=O)OC(=O)[C@H]12 (some centres undefined) | > 10 |  | > 10 | > 10 | > 10 | > 10 | > 10 | > 10 | > 10 | > 10
